Results as given in patent US20260355168A1, “COMPOSITIONS AND METHODS FOR TREATING AND DETECTING CANCER” (CASE WESTERN RESERVE UNIVERSITY, priority 2022, published 2026).
“Also recorded” adds a separate entry of the source.

Assays:
PTPμ = PTPμ (Homo sapiens, UniProt P28827); assay: In vitro phosphatase assay, GST-PTPμ_intra, malachite green; type: biochemical; design: A2: GST-PTPμ_intra, entire intracellular domain, aa 765-1449 (phosphatase)
Description: FIG. 8 illustrates a histogram showing the results of the phosphatase assays. […] The enzyme was pretreated on ice for 10 min, and the reactions started by addition of a peptide substrate and incubation at 30 °C. The amount of released phosphate was measured at 15 min using the malachite green reaction and normalized to that of the vehicle-treated control. Data is presented as percentages±s.e.m. of the indicated number of independent experiments. Differences were assessed using the Student's t-test with comparison to an untreated control sample (as all DMSO samples were set to 100% release). A difference was deemed significant at p<0.05.
A GST fusion protein containing the intracellular domain of PTPμ (B5: aa 765-1449) (PTPμ_intra) was prepared as described. Phosphatase reactions (50 μl total volume) were assembled on ice by mixing 0.4 μg GST-PTPμ_intra with phosphatase buffer (25 mM Hepes pH 7.4, 50 mM NaCl and 2 mM DTT) and compounds (100 μM) or DMSO (1%). […] Colorimetric product was allowed to develop for 15 min at room temperature, and the absorbance of the samples and a standard curve of free phosphate (assembled per the manufacturer's instructions) were read at 600 nm on a Synergy HT Microplate Reader (BioTek Instruments Inc., Winooski, Vermont). The amount of released phosphate was calculated, normalized to that released by the DMSO control sample, and expressed as a percent. […]

LN229 tumor xenograft = assay: Human glioma flank tumor (LN229) growth assay in nude mice; type: in vivo, athymic nude mice; human LN229 cells
Description: FIGS. 9(A-C) illustrates a plot and images of the results of the human glioma tumor model in mice. LN229-flank tumors (n=6 per treatment group) established in nude mice were injected with vehicle or compound once a week for three weeks. A. Tumor sizes were measured once a week for four weeks and normalized to their starting sizes. Data is presented as average percent growth±s.e.m. Between-group comparisons were made using Student's t-test. Differences were considered significant at p<0.05. […] Representative images of H&E-stained sections from tumors (two per treatment group) harvested at 4-weeks are shown.
Glioma-cell tumor xenografts were prepared as previously described. Briefly, LN229 cells (2×10^6 per injection) mixed with Matrigel (Corning, Corning Inc., Corning, NY, USA) were subcutaneously injected into the flank of athymic nude (FoxN1^nu/Foxn1^nu) female mice bred by the Case Western Reserve University Athymic Animal Core Facility or obtained from The Jackson Laboratory (Bar Harbor, ME). Experiments were approved by our IACUC committee. Twelve days post tumor-cell-injection, 247678835 or DMSO was diluted into PBS to give final concentrations of 2 mM or 20%, respectively, and 25 μl was injected into the center of each flank tumor. Additional compound or DMSO injections were given 7 and 14 days after the first injection, and tumor volumes [(length×width^2)/2] were recorded once a week for 4 weeks. At four weeks, mice were sacrificed, and tumors were isolated, fixed in 10% buffered formalin, and prepared for paraffin sectioning. Five micron-thick sections were cut, stained with H&E, and images captured with a Hamamatsu Nanozoomer S60 Slide Scanner (Hama-matsu Photonics, K.K., Bridgewater, NJ, USA).
Human LN229 glioma cells were subcutaneously injected into the flanks of twelve athymic nude mice (n=6 per treatment group). Once tumors were established (12-days post cell injection), DMSO or 247678835 was injected into the center of each tumor once a week for three weeks, and tumor volumes were calculated from caliper measurements. […] Mice were sacrificed 4 weeks after the first treatment, and tumors were harvested, fixed, sectioned, and stained with H&E.

parental Sf9 cells = assay: Helix Blue staining of parental Sf9 cells (cell survival); type: cell-based, insect; settings: 100 μM, 24 h, cells lack PTPμ
Description: FIG. 17 illustrates images showing the effects of prioritized inhibitors on cell survival. LN229 cells were plated onto non-adherent surfaces and cultured in the presence of the indicated compounds (100 μM). On day 1, spheres were stained with Helix Blue to detect dying cells. Parental Sf9 cells (which lack PTPμ) plated onto tissue culture plastic were also grown in the presence of the indicated compounds and, on day 1, stained with Helix Blue. Three compounds appeared to cause a qualitative increase in staining in LN229 spheres. No compound was toxic to Sf9 cells.
LN229 cells, plated onto non-adherent surfaces as described above, and parental Sf9 cells (without PTPμ), seeded into 96-well flat bottom tissue culture plates, were treated for 24 h with the indicated compounds (100 μM). The cells and spheres were then treated with 5.5 μM Helix Blue (Biolegend, San Diego, CA) and imaged at 10× on a Leica CTR6500 fluorescence microscope.
The seven penetrant inhibitors were tested to see if they affected the survival of LN229 spheres and parental Sf9 cells (which lack PTPμ) (FIG. 17).

Chain of PTPμ (P28827 21-1452): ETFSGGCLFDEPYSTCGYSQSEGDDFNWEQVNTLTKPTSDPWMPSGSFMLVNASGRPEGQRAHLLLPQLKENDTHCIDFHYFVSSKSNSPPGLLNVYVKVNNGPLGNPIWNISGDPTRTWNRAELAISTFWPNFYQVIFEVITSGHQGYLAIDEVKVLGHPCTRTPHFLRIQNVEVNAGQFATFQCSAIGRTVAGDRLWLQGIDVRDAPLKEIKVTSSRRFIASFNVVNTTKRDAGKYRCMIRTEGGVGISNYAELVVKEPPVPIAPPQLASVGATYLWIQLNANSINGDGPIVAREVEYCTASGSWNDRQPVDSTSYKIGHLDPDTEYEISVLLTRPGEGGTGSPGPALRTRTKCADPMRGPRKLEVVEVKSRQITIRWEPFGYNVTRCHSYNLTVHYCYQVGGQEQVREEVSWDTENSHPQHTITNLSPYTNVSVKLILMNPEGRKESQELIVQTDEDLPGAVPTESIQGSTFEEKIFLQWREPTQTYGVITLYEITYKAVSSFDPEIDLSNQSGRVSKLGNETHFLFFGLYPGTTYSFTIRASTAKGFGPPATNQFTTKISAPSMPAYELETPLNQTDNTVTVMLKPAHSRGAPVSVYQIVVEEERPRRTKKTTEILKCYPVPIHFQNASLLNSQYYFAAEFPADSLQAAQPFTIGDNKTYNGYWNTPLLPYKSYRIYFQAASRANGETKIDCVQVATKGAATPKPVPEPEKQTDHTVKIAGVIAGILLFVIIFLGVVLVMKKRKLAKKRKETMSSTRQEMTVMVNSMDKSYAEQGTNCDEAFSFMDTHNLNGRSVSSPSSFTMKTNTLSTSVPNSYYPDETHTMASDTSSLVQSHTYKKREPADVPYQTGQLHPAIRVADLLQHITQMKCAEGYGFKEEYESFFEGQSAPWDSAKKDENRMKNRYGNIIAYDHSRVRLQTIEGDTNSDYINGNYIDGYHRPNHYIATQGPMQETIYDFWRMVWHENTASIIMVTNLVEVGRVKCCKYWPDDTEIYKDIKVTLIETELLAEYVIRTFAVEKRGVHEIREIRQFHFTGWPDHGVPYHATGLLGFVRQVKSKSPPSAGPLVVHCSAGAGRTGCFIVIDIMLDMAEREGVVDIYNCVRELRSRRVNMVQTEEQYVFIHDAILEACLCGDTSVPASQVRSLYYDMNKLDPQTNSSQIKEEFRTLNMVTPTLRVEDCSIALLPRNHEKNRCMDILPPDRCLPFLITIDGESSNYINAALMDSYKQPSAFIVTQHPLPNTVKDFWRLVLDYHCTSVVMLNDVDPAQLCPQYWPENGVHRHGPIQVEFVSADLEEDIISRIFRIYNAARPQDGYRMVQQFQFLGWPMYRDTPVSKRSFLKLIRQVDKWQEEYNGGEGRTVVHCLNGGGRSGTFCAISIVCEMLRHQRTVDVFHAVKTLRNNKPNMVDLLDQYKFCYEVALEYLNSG

| SMILES | Effect on PTPμ phosphatase activity (released phosphate) (PTPμ; role: inhibitor, 100 μM, peptide substrate 60 μM, 30 °C, pH 7.4) | Tumor size relative to starting size (LN229 tumor xenograft; 3 weeks post first injection, intratumoral once a week, 2 mM, 25 μl) [×] | Effect on tumor growth after treatment stopped (LN229 tumor xenograft; 4 weeks post first injection, in words) | Tumor histology (H&E) (LN229 tumor xenograft; tumors harvested at 4 weeks) | Effect on tumor growth (LN229 tumor xenograft; up to 3 weeks post first injection, intratumoral, in words) | Effect on parental Sf9 cell survival (parental Sf9 cells) | Interference with malachite green dye (PTPμ; apparent reaction product in absence of enzyme/substrate) |
| --- | --- | --- | --- | --- | --- | --- | --- |
| O=C(NCc1nc(-c2ccncc2)no1)c1ccc(Cl)c(S(=O)(=O)NCc2ccccc2)c1 [Compound 247678791] | modestly inhibit PTPμ's catalytic activity in vitro; also recorded: modest, but highly consistent reduction in released phosphate; also recorded: modestly inhibit the phosphatase activity of a PTPμ-intracellular construct; also recorded: modest, but statistically significant, reduction on enzymatic activity |  |  |  |  |  |  |
| COc1cc(C)ccc1OCC(=O)Nc1nc(-c2c[nH]c(C(N)=O)c2)cs1 [Compound 247678835] |  | 1.3 | appeared to rebound; also recorded: no longer statistically appreciable at 4 weeks post-injection | generally appeared less ‘cellular’ than DMSO-treated controls; also recorded: appeared smaller and less cellular | inhibit glioma-cell growth in a human glioma tumor model in mice; also recorded: inhibit flank tumor growth in vivo; also recorded: able to affect tumor growth in vivo; also recorded: slowed tumor growth, producing a statistically significant growth reduction by 3 weeks post-first injection | did not affect parental Sf9 cells | reacted with the malachite green dye, giving an apparent reaction product in the absence of enzyme/substrate; also recorded: interacted with the dye used to measure the release of free phosphate |
| CCN(C(=O)CN1C(=O)NC(C)(CCC(C)C)C1=O)c1cccc2ccccc12 (centres unmarked) [Compound 247677616] |  |  |  |  |  | did not affect parental Sf9 cells |  |
